According to patent publication US10681909B2, “Herbicidal triazoles” (FMC Corporation, priority 2014, dated 2020):

Assays:
wheat (winter wheat) = test: Test C postemergence; assay type: in vivo, Triticum aestivum
In short: (§1)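 Pre: seeded into loam/sand, sprayed same time. Post: plants in peat moss–vermiculite mix with starter nutrients and dolomitic limestone, treated at 1- to 4-leaf stage (2 to 18 cm). Formulation: non-phytotoxic solvent blend plus surfactant.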

corn [1] = test: Test A postemergence; assay type: in vivo, Zea mays; conditions: Zea mays, post-emergence, 240 h, 0 to 100 scale (0 no effect, 100 complete control), approx. 10 d
In short: (§2)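 Pre- and postemergence spray tests in a loam soil–sand mixture: seeded soil received a directed spray, while established seedlings 2–10 cm high at the one- to two-leaf stage were treated over the top. Compounds were carried in non-phytotoxic solvent with surfactant.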

chickweed = test: Test C postemergence; assay type: in vivo, Stellaria media
In short: as §1

sedge, umbrella = test: Test B flooded paddy test; assay type: in vivo, Cyperus difformis; conditions: Cyperus difformis, 360 h, 250 g ai/ha, applied to paddy water at 2-leaf stage, visual rating after 13 to 15 d, scale 0 (no effect) to 100 (complete control), read-out: Plant response rating, Sedge, Umbrella, Flood
In short: (§3)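 Pots were flooded to 3 cm above the soil at treatment, and compounds were applied directly into the paddy water. That depth was held throughout. After 13 to 15 d in a greenhouse, plants were rated visually against untreated controls.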

lambsquarters = test: Test C postemergence; assay type: in vivo, Chenopodium album
In short: as §1

oilseed rape = test: Test C postemergence; assay type: in vivo, Brassica napus
In short: as §1

ryegrass, Italian = test: Test C postemergence; assay type: in vivo, Lolium multiflorum
In short: as §1

nutsedge, yellow = test: Test C postemergence; assay type: in vivo, Cyperus esculentus
In short: as §1

galium = test: Test C postemergence; assay type: in vivo, Galium aparine
In short: as §1

foxtail, giant [2] = test: Test C postemergence; assay type: in vivo, Setaria faberii
In short: as §1

pigweed [3] = test: Test A postemergence; assay type: in vivo, Amaranthus retroflexus; conditions: Amaranthus retroflexus, post-emergence, 240 h, 0 to 100 scale (0 no effect, 100 complete control), approx. 10 d, read-out: Plant response rating, Pigweed
In short: as §2

johnsongrass = test: Test C postemergence; assay type: in vivo, Sorghum halepense
In short: as §1

pigweed [4] = test: Test C postemergence; assay type: in vivo, Amaranthus retroflexus
In short: as §1

oat, wild = test: Test C postemergence; assay type: in vivo, Avena fatua
In short: as §1

corn [5] = test: Test C postemergence; assay type: in vivo, Zea mays
In short: as §1

ducksalad = test: Test B flooded paddy test; assay type: in vivo, Heteranthera limosa; conditions: Heteranthera limosa, 360 h, 250 g ai/ha, applied to paddy water at 2-leaf stage, visual rating after 13 to 15 d, scale 0 (no effect) to 100 (complete control), read-out: Plant response rating, Ducksalad, Flood
In short: as §3

foxtail, giant [6] = test: Test A postemergence; assay type: in vivo, Setaria faberii; conditions: Setaria faberi, post-emergence, 240 h, 0 to 100 scale (0 no effect, 100 complete control), approx. 10 d, read-out: Plant response rating, Foxtail, Giant
In short: as §2

rice = test: Test B flooded paddy test; assay type: in vivo, Oryza sativa; conditions: Oryza sativa, 360 h, 250 g ai/ha, applied to paddy water at 2-leaf stage, visual rating after 13 to 15 d, scale 0 (no effect) to 100 (complete control), read-out: Plant response rating, Rice, Flood
In short: as §3

barnyardgrass [7] = test: Test A postemergence; assay type: in vivo, Echinochloa crus-galli; conditions: Echinochloa crus-galli, post-emergence, 240 h, 0 to 100 scale (0 no effect, 100 complete control), approx. 10 d, read-out: Plant response rating, Barnyardgrass
In short: as §2

barnyardgrass [8] = test: Test B flooded paddy test; assay type: in vivo, Echinochloa crus-galli; conditions: Echinochloa crus-galli, 360 h, 250 g ai/ha, applied to paddy water at 2-leaf stage, visual rating after 13 to 15 d, scale 0 (no effect) to 100 (complete control), read-out: Plant response rating, Barnyardgrass, Flood
In short: as §3

ragweed = test: Test C postemergence; assay type: in vivo, Ambrosia elatior
In short: as §1

Structure (SMILES): CCCc1nc(-c2ccc(F)cc2)nn1Cc1ccnc(C(F)(F)F)c1 [Compound 6, 4-[[3-(4-fluorophenyl)-5-propyl-1H-1,2,4-triazol-1-yl]methyl]-2-(trifluoromethyl)pyridine]
- Plant response rating (scale of 0 to 100 where 0 is no effect and 100 is complete control) (wheat (winter wheat); 31 g ai/ha): 5
- Plant response rating (scale of 0 to 100 where 0 is no effect and 100 is complete control) (wheat (winter wheat); 62 g ai/ha): 10
- Plant response rating (scale of 0 to 100 where 0 is no effect and 100 is complete control) (wheat (winter wheat); 125 g ai/ha): 15
- Plant response rating (scale of 0 to 100 where 0 is no effect and 100 is complete control) (wheat (winter wheat); 250 g ai/ha): 15
- Corn plant response rating (crop injury, 0 = no effect, 100 = complete kill) at 125 g/ha (corn [1]; 125 g ai/ha): 40%
- Corn plant response rating (crop injury, 0 = no effect, 100 = complete kill) at 500 g/ha (corn [1]; 500 g ai/ha): 70%
- Plant response rating (scale of 0 to 100 where 0 is no effect and 100 is complete control) (chickweed; 31 g ai/ha): 70
- Plant response rating (scale of 0 to 100 where 0 is no effect and 100 is complete control) (chickweed; 62 g ai/ha): 80
- Plant response rating (scale of 0 to 100 where 0 is no effect and 100 is complete control) (chickweed; 125 g ai/ha): 85
- Plant response rating (scale of 0 to 100 where 0 is no effect and 100 is complete control) (chickweed; 250 g ai/ha): 95
- pest or weed control at 250 g/ha (sedge, umbrella): 80%
- Plant response rating (scale of 0 to 100 where 0 is no effect and 100 is complete control) (lambsquarters; 31 g ai/ha): 65
- Plant response rating (scale of 0 to 100 where 0 is no effect and 100 is complete control) (lambsquarters; 62 g ai/ha): 70
- Plant response rating (scale of 0 to 100 where 0 is no effect and 100 is complete control) (lambsquarters; 125 g ai/ha): 85
- Plant response rating (scale of 0 to 100 where 0 is no effect and 100 is complete control) (lambsquarters; 250 g ai/ha): 85
- Plant response rating (scale of 0 to 100 where 0 is no effect and 100 is complete control) (oilseed rape; Oilsee Rape, 250 g ai/ha): 95
- Plant response rating (scale of 0 to 100 where 0 is no effect and 100 is complete control) (oilseed rape; Oilseed Rape, 31 g ai/ha): 55
- Plant response rating (scale of 0 to 100 where 0 is no effect and 100 is complete control) (oilseed rape; Oilseed Rape, 62 g ai/ha): 55
- Plant response rating (scale of 0 to 100 where 0 is no effect and 100 is complete control) (oilseed rape; Oilseed Rape, 125 g ai/ha): 95
- Plant response rating (scale of 0 to 100 where 0 is no effect and 100 is complete control) (ryegrass, Italian; 31 g ai/ha): 5
- Plant response rating (scale of 0 to 100 where 0 is no effect and 100 is complete control) (ryegrass, Italian; 62 g ai/ha): 5
- Plant response rating (scale of 0 to 100 where 0 is no effect and 100 is complete control) (ryegrass, Italian; 125 g ai/ha): 5
- Plant response rating (scale of 0 to 100 where 0 is no effect and 100 is complete control) (ryegrass, Italian; 250 g ai/ha): 10
- Plant response rating (scale of 0 to 100 where 0 is no effect and 100 is complete control) (nutsedge, yellow; 31 g ai/ha): 5
- Plant response rating (scale of 0 to 100 where 0 is no effect and 100 is complete control) (nutsedge, yellow; 62 g ai/ha): 5
- Plant response rating (scale of 0 to 100 where 0 is no effect and 100 is complete control) (nutsedge, yellow; 125 g ai/ha): 5
- Plant response rating (scale of 0 to 100 where 0 is no effect and 100 is complete control) (nutsedge, yellow; 250 g ai/ha): 5
- Plant response rating (scale of 0 to 100 where 0 is no effect and 100 is complete control) (galium; 31 g ai/ha): 80
- Plant response rating (scale of 0 to 100 where 0 is no effect and 100 is complete control) (galium; 62 g ai/ha): 80
- Plant response rating (scale of 0 to 100 where 0 is no effect and 100 is complete control) (galium; 125 g ai/ha): 90
- Plant response rating (scale of 0 to 100 where 0 is no effect and 100 is complete control) (galium; 250 g ai/ha): 90
- Plant response rating (scale of 0 to 100 where 0 is no effect and 100 is complete control) (foxtail, giant [2]; 31 g ai/ha): 40
- Plant response rating (scale of 0 to 100 where 0 is no effect and 100 is complete control) (foxtail, giant [2]; 62 g ai/ha): 40
- Plant response rating (scale of 0 to 100 where 0 is no effect and 100 is complete control) (foxtail, giant [2]; 125 g ai/ha): 45
- Plant response rating (scale of 0 to 100 where 0 is no effect and 100 is complete control) (foxtail, giant [2]; 250 g ai/ha): 75
- pest or weed control at 125 g/ha (pigweed [3]; 125 g ai/ha): 50%
- pest or weed control at 500 g/ha (pigweed [3]; 500 g ai/ha): 100%
- Plant response rating (scale of 0 to 100 where 0 is no effect and 100 is complete control) (johnsongrass; 31 g ai/ha): 10
- Plant response rating (scale of 0 to 100 where 0 is no effect and 100 is complete control) (johnsongrass; 62 g ai/ha): 10
- Plant response rating (scale of 0 to 100 where 0 is no effect and 100 is complete control) (johnsongrass; 125 g ai/ha): 15
- Plant response rating (scale of 0 to 100 where 0 is no effect and 100 is complete control) (johnsongrass; 250 g ai/ha): 35
- Plant response rating (scale of 0 to 100 where 0 is no effect and 100 is complete control) (pigweed [4]; 31 g ai/ha): 80
- Plant response rating (scale of 0 to 100 where 0 is no effect and 100 is complete control) (pigweed [4]; 62 g ai/ha): 80
- Plant response rating (scale of 0 to 100 where 0 is no effect and 100 is complete control) (pigweed [4]; 125 g ai/ha): 85
- Plant response rating (scale of 0 to 100 where 0 is no effect and 100 is complete control) (pigweed [4]; 250 g ai/ha): 85
- Plant response rating (scale of 0 to 100 where 0 is no effect and 100 is complete control) (oat, wild; 31 g ai/ha): 5
- Plant response rating (scale of 0 to 100 where 0 is no effect and 100 is complete control) (oat, wild; 62 g ai/ha): 5
- Plant response rating (scale of 0 to 100 where 0 is no effect and 100 is complete control) (oat, wild; 125 g ai/ha): 10
- Plant response rating (scale of 0 to 100 where 0 is no effect and 100 is complete control) (oat, wild; 250 g ai/ha): 10
- Plant response rating (scale of 0 to 100 where 0 is no effect and 100 is complete control) (corn [5]; 31 g ai/ha): 10
- Plant response rating (scale of 0 to 100 where 0 is no effect and 100 is complete control) (corn [5]; 62 g ai/ha): 15
- Plant response rating (scale of 0 to 100 where 0 is no effect and 100 is complete control) (corn [5]; 125 g ai/ha): 20
- Plant response rating (scale of 0 to 100 where 0 is no effect and 100 is complete control) (corn [5]; 250 g ai/ha): 50
- pest or weed control at 250 g/ha (ducksalad): 70%
- pest or weed control at 125 g/ha (foxtail, giant [6]; 125 g ai/ha): 90%
- pest or weed control at 500 g/ha (foxtail, giant [6]; 500 g ai/ha): 90%
- plant injury at 250 g/ha (rice): 50%
- pest or weed control at 125 g/ha (barnyardgrass [7]; 125 g ai/ha): 80%
- pest or weed control at 500 g/ha (barnyardgrass [7]; 500 g ai/ha): 90%
- pest or weed control at 250 g/ha (barnyardgrass [8]): 40%
- Plant response rating (scale of 0 to 100 where 0 is no effect and 100 is complete control) (ragweed; 31 g ai/ha): 75
- Plant response rating (scale of 0 to 100 where 0 is no effect and 100 is complete control) (ragweed; 62 g ai/ha): 75
- Plant response rating (scale of 0 to 100 where 0 is no effect and 100 is complete control) (ragweed; 250 g ai/ha): 80
